According to paper PMC3280214, “Structure Based Discovery of Small Molecules to Regulate the Activity of Human Insulin Degrading Enzyme” (PLoS ONE, 2012):
Several values for one entry are separate records, joined by “and”; a condition that tells them apart may be missing. Equal entries are not always repeated. Entries after “also recorded” stand apart in the source; their conditions may differ.

How the values were obtained:
[1] = molecular target: T1, IDE (Homo sapiens, UniProt P14735); experiment: Degradation of FITC-insulin-mAb by IDE; format: biochemical; settings: for increase of IDE-mediated insulin (FITC-insulin-mAb) degradation: 20 µM compound; for effect of ATP on IDE activity for insulin degradation in presence of compound: 0.1 mM ATP; for EC50: dose response, Sigmoidal Hill 4 parameter fit; for increase of initial rate of proteolysis of FITC-insulin bound with antibody: wild type IDE, presence vs absence of compound
T1 construct: made in house; host or cells: E. coli BL21
T1 sequence (P14735 1-1019): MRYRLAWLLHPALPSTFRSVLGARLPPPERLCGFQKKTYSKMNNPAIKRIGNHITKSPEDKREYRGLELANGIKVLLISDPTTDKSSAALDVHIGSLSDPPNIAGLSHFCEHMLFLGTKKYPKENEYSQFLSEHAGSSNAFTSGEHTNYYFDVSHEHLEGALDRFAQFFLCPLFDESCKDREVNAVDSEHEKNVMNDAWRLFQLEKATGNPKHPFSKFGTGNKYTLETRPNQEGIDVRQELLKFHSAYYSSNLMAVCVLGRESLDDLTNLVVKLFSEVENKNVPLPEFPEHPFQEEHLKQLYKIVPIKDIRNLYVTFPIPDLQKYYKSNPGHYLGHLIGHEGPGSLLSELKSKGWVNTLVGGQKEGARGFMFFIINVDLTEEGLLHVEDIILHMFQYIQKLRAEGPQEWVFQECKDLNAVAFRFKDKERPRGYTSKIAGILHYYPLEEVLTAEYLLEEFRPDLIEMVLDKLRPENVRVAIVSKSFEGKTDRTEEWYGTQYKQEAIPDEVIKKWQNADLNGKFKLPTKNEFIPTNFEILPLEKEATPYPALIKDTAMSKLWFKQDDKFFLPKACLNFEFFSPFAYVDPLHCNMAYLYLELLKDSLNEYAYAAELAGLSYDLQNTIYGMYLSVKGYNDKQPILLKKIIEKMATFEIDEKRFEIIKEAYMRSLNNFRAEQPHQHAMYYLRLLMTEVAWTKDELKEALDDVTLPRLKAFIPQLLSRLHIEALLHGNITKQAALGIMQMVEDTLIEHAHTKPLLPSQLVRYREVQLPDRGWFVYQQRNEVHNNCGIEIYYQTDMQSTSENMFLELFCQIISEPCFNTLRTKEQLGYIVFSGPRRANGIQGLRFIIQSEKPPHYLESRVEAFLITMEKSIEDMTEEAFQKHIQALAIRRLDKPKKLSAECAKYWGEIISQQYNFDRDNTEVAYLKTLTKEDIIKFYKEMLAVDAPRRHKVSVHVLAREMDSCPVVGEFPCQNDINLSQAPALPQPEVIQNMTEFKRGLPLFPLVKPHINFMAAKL
Description: (§1) The 10 compounds given in Table 1 were subjected to further characterization and their effect was measured on the proteolytic activity of IDE using different substrates. Initially, activity assays were carried out at fixed 20 µM concentrations for all molecules to identify the effect of those compounds on IDE activity. IDE activity was quantified by monitoring the change in fluorescence for the proteolysis of fluorogenic-substrate V, FITC- insulin-bound antibody, and FAβB by recombinant human IDE purified from E.coli BL21 [6], [18], [19]. […] Also, D6 increased the amyloid-β degradation by 20% (Fig. S1C). Further, D10 enhanced IDE-mediated FITC-insulin-mAb and substrate V degradation by 290% and 65%, respectively (Fig. S1A, B). Next, an EC50 value of each molecule that enhanced IDE activity was determined with a dose response assay, where specific activity of IDE was measured with different concentrations of the lead compounds and then the plot was fit to Sigmoidal Hill-4 parameter equation. […] EC50 value for D3 on insulin degradation was approximately measured as 20 µM (Fig. S2C), whereas EC50 value for D6 on amyloid-β degradation was 2 µM (Fig. S2D). […] Among all these four compounds, D10 seems to be the potent activator of IDE, when proteolysis of insulin is considered.
In order to measure degradation of insulin by IDE, FITC-insulin is bound to the monoclonal mouse anti-human-insulin, so that the rotation of free FITC and possible changes in fluorescence polarization could be prevented. We performed enzymatic assays, using only FITC-insulin bound antibody as a background fluorescence and checked the effects of compounds on the cleavage of FITC-insulin-mAb. FITC-insulin is bound to mouse anti human insulin antibody in PBS at 37°C for 1 hour, which is higher than the optimum time required to obtain maximum binding of insulin-FITC conjugate and mAb. It is observed that 400 nM mAb completely binds to 50 nM FITC-insulin (Fig. S7). Since molecular weights of FITC-insulin and mAb are about 5.8 kDa and 60 kDa respectively, we observed very slight shift in the gel as expected. In figure S7, it is observed in lane 4 that 50 nM (100 ng) insulin is completely bound to 400 nM mAb in lane 4 (Fig. S7). […] The binding between insulin and mAb is shown by performing (%5 and %15) native polyacrylamide gel electrophoresis.
The utility of these novel compounds were tested on degradation of insulin by IDE. First insulin was labeled with FITC as described previously. Briefly, 500 mg insulin dissolved in 1.5 ml of 0.1 M Na-carbonate, at pH 7, and 0.2 mM EDTA. Then, 4.5 mg FITC was dissolved in 200 µl acetone and was added dropwise to previous solution at room temperature for 20 h ([FITC]∶[insulin], 3∶1). Finally, unreacted FITC was removed by dialysis and the FITC-insulin was stored at −20°C. The proteolysis of insulin by IDE was monitored by measuring the changes in fluorescence, where the reaction was carried out with 100 nM of FITC- insulin-mAb and IDE (80 ng) in 100 µl KH2PO4 buffer at a pH of 7.3. Reaction was carried out at 37°C for different time intervals (0–4 hours). The increase in fluorescence was monitored by using Fluoroskan Ascent FL microplate reader (Thermo).
(§2) The effect of the lead compounds on the initial rate of proteolysis of IDE was determined by measurement in fluorescence with time both in the presence and absence of the lead compounds. The kinetic data for IDE-mediated insulin, substrate V and amyloid-β degradation were plotted and fitted using SigmaPlot software (Sigmoidal, Hill, 4 parameter). For the initial rate calculations, kinetic data were fitted using SigmaPlot software (Hyperbola; Single Rectangular I, 3 Parameter).

[2] = molecular target: T1, IDE; experiment: FAβB (amyloid-β) degradation assay; format: biochemical; settings: 20 µM compound
Description: as §1
This assay was performed as follows: 10 µl of 50 nM of FAβB was dissolved in a buffer which consisted of 50 mM HEPES, 100 mM NaCl, % 0,05 (v/v) bovine serum albumin, at a pH of 7.4. The reaction was initiated in a total volume of 100 µl with 20 µM drugs by adding 20 µl of 0.02 mg/ml of IDE for 2.5 h at 37°C. The reaction was stopped by adding 2 µl of 100 mM of protease inhibitor (1, 10-phenanthroline). Uncleaved FAβB was precipitated with Neutravidin- coated agarose beads by gentle rocking for 30 min. and centrifugation for 10 min at 14000 g. The supernatant was transferred to the black 96 well plates and increase in fluorescence (488 excitation, 525 emission) was measured with a multi-label plate reader.
as §2

SMILES | increase of IDE-mediated insulin (FITC-insulin-mAb) degradation [1] | effect of ATP on IDE activity for insulin degradation in presence of compound [1] | EC50 [1] [µM] | increase of initial rate of proteolysis of FITC-insulin bound with antibody [1] [fold] | effect on proteolysis activity of IDE for amyloid-β [2]
COc1ccc(C2C(C(=O)Nc3ccccc3)=C(C)N=c3sc(=Cc4cn(C)nc4C)c(=O)n32)cc1 (stereo not drawn) [Compound D3] | 72% | did not change significantly; also recorded: no effect | ~20 | ~7.5 | did not have any effect
Cc1nn(-c2ccccc2)c2nc(-c3cccc([N+](=O)[O-])c3)n3c4ccccc4nc3c2c1=O [Compound D10] | 290% and ~275% | did not change significantly; also recorded: no effect | 12 | ~49 | did not have any effect
Nc1c(C(=O)Nc2ccccc2F)c2ccccn2c1C(=O)c1ccc2c(c1)CCCC2 [Compound D4] | 60% | did not change significantly; also recorded: no effect | 13 | ~12 | did not have any effect
